# Data taken from PMC12518634, “The noncanonical function of liver-type phosphofructokinase potentiates the efficacy of HDAC inhibitors in cancer” (Signal Transduction and Targeted Therapy, 2025).
# pEC50: −log10 of the molar value. Where two headings read alike, the source gives them in different places.
# Experiments:
# 783C-6 = assay: High-throughput drug screen, CellTiter-Glo viability, 72 h; type: cell-based, human; design: AUC: scale not given here; settings: for pEC50: 72 h, read-out: EC50; for AUC: area under the dose-response curve
# Description: (§1) The cells were seeded and incubated with a gradient of concentrations of drugs for 72 h, after which the cell viability was assessed (Supplementary Fig. 1a). The drug library primarily comprises epigenetic drugs, including HDAC inhibitors, DNA methyltransferase inhibitors, and histone demethylase inhibitors, as well as conventional chemotherapies and kinase inhibitors (Supplementary Fig. 1b and Supplementary Table 1). […] To identify novel therapeutics against CCA, we conducted a high-throughput screen employing PerkinElmer’s integrated robotic Explorer G3 workstations. […] Following dilution to five specified concentrations, drugs were dispensed into 96-well plates in the sequence detailed in Supplementary Fig. 1a. The CCA cell lines were subsequently plated in 384-well plates at a density of 3000 cells per well in a 20 μL total volume. After a 24-h incubation, the compounds were added to the wells and incubated for 72 h. We then quantified cell viability via the CellTiter-Glo luminescent assay according to the manufacturer’s protocol. Signal detection was carried out on a Synergy2 plate reader operated by Gen5 software (BioTek). For data processing, the raw luminescence data were processed through the Breeze pipeline for curve fitting, yielding quality control metrics (e.g., Z-factors) and drug response parameters (AUC and DSS), as adapted from previous work.[54] Drug responses were evaluated on the basis of the drug sensitivity score (DSS), and a cutoff of ≥10 was used to define efficacy. The complete drug library and screening dataset are available in Supplementary Tables 1-3.
# (§2) Supplementary Fig. 1. A high-throughput drug screen to identify drugs targeting CCA. a Schematic representation of the drug screening protocol. […] Each drug was tested at five different concentrations (10, 1, 0.1, 0.01, and 0.001 μM), and each treatment was replicated twice. b Classification of drugs used for screening.
# 1405R3 = assay: as above; type: cell-based, human; design: AUC: scale not given here; settings: 1405R3 DSRT analysis; for MIN: lower asymptote of fitted dose-response curve; for SLOPE: slope of fitted dose-response curve; for AUC: area under the dose-response curve; for pEC50: fitted dose-response curve, Min.Conc.tested 1, Max.Conc.tested 10000, 72 h, read-out: EC50
# Description: as §1, §2
# [1] = 783C-6 DSRT analysis, DSS calculated from the dose-response curve
# [2] = 783C-6 DSRT analysis, MIN of the fitted dose-response curve
# [3] = 783C-6 DSRT analysis, slope of the fitted dose-response curve
# [4] = 783C-6 DSRT analysis, CellTiter-Glo viability, fitted dose-response curve, Min.Conc.tested 1, Max.Conc.tested 10000
# [5] = 783C-6 cells, DSRT analysis, CellTiter-Glo viability, concentrations tested 1 to 10000 (unit inferred), GI50
# [6] = 783C-6 cells, DSS of DSRT analysis
# [7] = 783C-6 cells, minimum of dose-response curve
# [8] = 783C-6 cells, slope of fitted dose-response curve
Compound,DSS (783C-6; [1]),MIN (783C-6; [2]),SLOPE (783C-6; [3]),DSS (1405R3; DSS),MIN (1405R3),SLOPE (1405R3),pEC50 (783C-6; [4]),AUC (783C-6; 783C-6 DSRT analysis),AUC (1405R3),pEC50 (1405R3; CellTiter-Glo),pEC50 (783C-6; [5]),DSS (783C-6; [6]),AUC (783C-6; 783C-6 cells),MIN (783C-6; [7]),SLOPE (783C-6; [8]),"pEC50 (1405R3; CellTiter-Glo viability, GI50)",DSS (1405R3; drug sensitivity score),pEC50 (783C-6; Homo sapiens),"pEC50 (1405R3; Homo sapiens, CellTiter-Glo)"
CCNC(=O)C[C@@H]1N=C(c2ccc(Cl)cc2)c2cc(OC)ccc2-n2c(C)nnc21 [I-BET-762],0,97,-2.5,6,42,-2.5,,,,,,,,,,,,,
Clc1ccc(N/N=C(\c2ccccc2)c2ccccn2)nc1 [JIB-04],4.8,18.2,-2.5,8.1,34.7,-1.2,5.53,43.9,73.8,6.12,,,,,,,,,
O=C(O)CCNc1cc(N2CCc3ccccc3CC2)nc(-c2ccccn2)n1 [GSK J1],0,99.9,-1.3,0,100,-0.1,,0,0.1,,,,,,,,,,
C/C(=N\NC(=O)c1cccc(S(=O)(=O)N2CCOCC2)c1)c1cc(Cl)ccc1O [SP2509],,,,,61,-1.6,,,31.9,,5.66,4.9,43.2,35,-2.5,5.80,3.1,,
C#Cc1cccc(Nc2ncnc3cc(OC)c(OCCCCCCC(=O)NO)cc23)c1 [CUDC-101],8.7,2.2,,10,2.9,,,75.9,85.7,,,,,,,,,5.77,5.88
CCCCN(Cc1ccc(C(=O)NO)cc1)C(=O)Nc1ccccc1 [Nexturastat A],,,,,93.8,,,,0.7,,,0,4.3,85.6,,,0,,
CCCCNNC(=O)c1ccc(Br)cc1 [UF010],,,,,67.1,-2.5,,,21.1,,5.89,2.1,22.5,74.9,-2.4,5.64,2,,
COc1cc2c(Oc3ccc4[nH]c(C)cc4c3F)ncnc2cc1OCCCN1CCCC1 [Cediranib],2.4,57.8,,5.6,9.6,,,23.3,50.5,,,,,,,,,5.54,5.55
O=C(O)c1ccc(Nc2ncc3c(n2)-c2ccc(Cl)cc2C(c2c(F)cccc2F)=NC3)cc1 [MLN8054],0,70.8,,0,90.2,,,8.8,6.8,,,,,,,,,,
AZD4547,3.2,54.8,,0,88.1,,5.65,29.6,4.8,,,,,,,,,,
Cc1ccc(C(=O)Nc2ccc(CN3CCN(C)CC3)c(C(F)(F)F)c2)cc1C#Cc1cnc2cccnn12 [Ponatinib],,,,,87,,,,16.5,,,7,59.9,66.9,,,0.6,6.81,
CCCC(=O)[O-].[Na+] [Sodium butyrate],,,,,100,-0.1,,,0.1,,,0,0.1,100,-0.1,,0,,
C#Cc1cccc(Nc2ncnc3cc4c(cc23)OCCOCCOCCO4)c1 [Icotinib],0,90.4,,1.4,84.3,,,16.8,21.6,,,,,,,,,,
CCCC(CCC)C(=O)O [Divalproex Sodium],0,96.3,,0,100,,,0.4,0.1,,,,,,,,,,
Cl.Cn1cc(C(=O)Nc2ccc([C@@H]3C[C@H]3NCC3CC3)cc2)cn1 [T-3775440 HCl],,,,,97.3,-2.5,,,0.3,,,0,15,90.4,-0.1,,0,,
O=S(=O)(Cl)c1ccc(-c2ccccc2)cc1 [Biphenyl-4-sulfonyl chloride],0,88.2,-0.1,0,94,-0.2,,18.3,6.3,,,,,,,,,,
O=C(NNc1ccccn1)c1ccccn1 [PFI-90],,,,,93.5,-0.2,,,8.1,,,0,10.9,92.2,-2.5,,0,,
CCCc1cc(C)[nH]c(=O)c1CNC(=O)c1cc(-c2ccnc(N3CCN(C)CC3)c2)cc2c1cnn2C(C)C [GSK343],0,98.1,,0,91.2,,,2.9,13.6,,,,,,,,,,
CC(C)N(CCCNC(=O)Nc1ccc(C(C)(C)C)cc1)C[C@H]1O[C@@H](n2cc(Br)c3c(N)ncnc32)[C@H](O)[C@@H]1O [SGC 0946],,,,,93.6,,,,6.1,,,0,19.5,94.1,,,0,,
NKL 22,,,,,83.7,-2.5,,,6.3,,,0,3.5,92.5,-2.5,,0.2,,
Cn1cc(-c2ccc(S(=O)(=O)n3ccc(/C=C/C(=O)Nc4ccccc4N)c3)cc2)cn1 [4SC-202],6.7,48.6,-2.5,3.9,57.9,-2.3,6.11,57,35.8,5.85,,,,,,,,,
Nc1ccn([C@@H]2O[C@H](CO)[C@@H](O)C2(F)F)c(=O)n1 [Gemcitabine],7.6,63.5,,17.6,40,,,82.5,151.9,,,,,,,,,7.40,7.58
N[C@@H]1CCCN(c2c(/C=C3\SC(=O)NC3=O)cccc2-c2ccccc2)C1 [AZD1208],0,87.6,-0.1,0,87,-0.2,,19.2,16,,,,,,,,,,
O=C(O)C(Cc1c[nH]c2ccccc12)N1C(=O)c2ccccc2C1=O (stereo not shown) [RG108],,,,,99.8,-1.1,,,0.1,,,0,9.4,94,-0.1,,0,,
Cc1cc(-c2ccc3nc(C4CCOCC4)n(CCOC(F)(F)F)c3c2)cn(C)c1=O [NEO2734],,,,,8.1,-0.9,,,130.5,,7.06,6.1,72.8,64.2,-0.3,6.39,14.3,,
CNC(=O)c1ccccc1Sc1ccc2c(/C=C/c3ccccn3)n[nH]c2c1 [Axitinib],0,90.6,,0,91.1,,,2.8,6.8,,,,,,,,,,
CNCCN1CCC(OCc2ccccc2)CC1 [MS049],,,,,86.6,-0.1,,,20.8,,,0,4.9,83.6,-1,,0,,
